Reference: patent publication US4568687A, “N-[2-4-(1H-Imidazol-1-yl)alkyl]-arylamides and pharmaceutical compositions” (American Cyanamid Company, priority 1984, dated 1986)
Counter-ions that a name gives are not always drawn.

Biological target: T1, thromboxane synthetase (Rattus norvegicus, UniProt P49430)
T1 construct: The platelets were isolated by centrifuging the PRP for 10 minutes; endogenous in cells; host or cells: washed platelets from arterial blood of Okamoto-Aoki spontaneously hypertensive rats (rats from Taconic Farms)
T1 sequence (P49430 1-533): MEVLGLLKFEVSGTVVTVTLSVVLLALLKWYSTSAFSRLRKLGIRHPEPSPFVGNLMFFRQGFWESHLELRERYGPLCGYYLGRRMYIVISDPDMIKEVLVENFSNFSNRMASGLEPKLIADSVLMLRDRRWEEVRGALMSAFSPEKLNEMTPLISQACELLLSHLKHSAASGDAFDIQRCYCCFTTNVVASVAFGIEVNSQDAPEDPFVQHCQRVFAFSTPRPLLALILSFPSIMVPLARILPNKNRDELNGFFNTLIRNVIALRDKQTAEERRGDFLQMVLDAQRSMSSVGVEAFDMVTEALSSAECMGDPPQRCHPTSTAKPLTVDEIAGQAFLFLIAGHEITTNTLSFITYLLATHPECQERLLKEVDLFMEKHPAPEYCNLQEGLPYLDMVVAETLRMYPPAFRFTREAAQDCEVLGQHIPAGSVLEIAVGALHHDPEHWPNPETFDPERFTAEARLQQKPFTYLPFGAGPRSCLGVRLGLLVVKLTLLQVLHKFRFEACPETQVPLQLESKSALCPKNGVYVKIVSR
Test: Inhibition of thromboxane (TXB2) formation in washed rat platelets, TXB2 by direct radioimmunoassay
Format: cell-based, Okamoto-Aoki spontaneously hypertensive rats (SHR)
Settings: 10 min; Dose 10^-4 (unit inferred); SHR platelet suspension, 10 minutes at 37° C.
Description: Under urethan anesthesia, […] of arterial blood was collected in one ml. of 3.2% sodium citrate in a polystyrene tube from Okamoto-Aoki spontaneously hypertensive rats (SHR) (Taconic Farms, Germantown, NY) between 19 and 24 weeks in age. The blood was diluted with 3 ml. cold saline and centrifuged at room temperature for 15 minutes at 460×g. The platelet rich plasma (PRP) was separated. The platelets were isolated by centrifuging the PRP for 10 minutes at 1060×g and were washed in 4 ml. cold oxygenated Krebs phosphate buffer, pH 7.4. The chilled patelets recovered from centrifuging at 800×g for 10 minutes were resuspended in oxygenated Krebs phosphate buffer and diluted to contain 4.5-6.0×10^4 platelets/μl.
The inhibition of thromboxane (TX) formation was studied by determining the […] of thromboxane B2 (TXB2), the stable hydrolysis product of TXA2. Assay samples, prepared on ice, contained 200 μl platelet suspension, 50 μl saline, and 50 μl vehicle or drug under study (OKY-1581, UK-37248-01, 1-benzylimidazole, or indomethacin). The samples were incubated for 10 minutes at 37° C. in a metabolic shaker. The reaction was terminated by immersing the tubes in an ice bath and adding 50 μl of 0.5M citric acid. The samples were centrifuged for 10 minutes in a refrigerated centrifuge and the supernatants thus obtained were decanted and stored at -20° C. The TXB2 content for each sample was determined by a direct radioimmunoassay (RIA) utilizing a TXB2 specific RIA kit purchased from New England Nuclear, Boston, MA and expressed as pg TXB2 formed minute^-1 sample^-1, from which the percent inhibition of TXB2 formation was calculated.

Row | SMILES | inhibition at 100 µM [%]
1 | O=C(COc1cccc(Cl)c1Cl)NCCCn1ccnc1 [2-(2,3-dichlorophenoxy)-N--[3-(1H--imidazol-1-yl)propyl]acetamide, fumarate] | 100
2 | O=C(COc1ccc(Cl)cc1)NCCCn1ccnc1 [2-(4-chlorophenoxy)-N--[3-(1H--imidazol-1-yl)propyl]acetamide] | 84.6
3 | O=C1c2ccccc2C(=O)N1CCCCCn1ccnc1 [2-[5-(1H--imidazol-1-yl)pentyl]-1H--isoindole-1,3(2H)--dione] | 92
4 | O=C(NCCCn1ccnc1)c1ccccc1Cl [2-chloro-N--[3-(1H--imidazol-1-yl)propyl]benzamide] | 99.7
5 | CCNc1ccccc1C(=O)NCCCn1ccnc1 [2-ethylamino-N--[3-(1H--imidazol-1-yl)propyl]benzamide] | 86
6 | O=C(NCCCn1ccnc1)c1ccccc1F [2-fluoro-N--[3-(1H--imidazol-l-yl)propyl]benzamide] | 83.9
7 | O=C(NCCCCn1ccnc1)c1ccc(Cl)c(Cl)c1 [3,4-Dichloro-N-[4-(1H-imidazol-1-yl)butyl]benzamide] | 100
8 | O=C(NCCn1ccnc1)c1ccc(Cl)c(Cl)c1 [3,4-dichloro-N--[2-(1H--imidazol-1-yl)ethyl]benzamide] | 58.5
9 | O=C(NCCCn1ccnc1)c1ccc(Cl)c(Cl)c1 [3,4-dichloro-N--[3-(1H--imidazol-1-yl)propyl]benzamide] | 92.7
10 | Cc1cn(CCCNC(=O)c2cccc(Br)c2)cn1 [3-bromo-N--[3-(4-methyl-1H--imidazol-1-yl)propyl]benzamide] | 93
11 | CC(CCNC(=O)c1cccc(Cl)c1)n1ccnc1 (centres unmarked) [3-chloro-N--[3-(1H--imidazol-1-yl)butyl]benzamide] | 93
12 | O=C(NCCCn1ccnc1)c1cccc(F)c1 [3-fluoro-N--[3-(1H--imidazol-1-yl)propyl]benzamide] | 95.8
13 | O=C(NCCCn1ccnc1)c1cccc(C(F)(F)F)c1 [3-trifluoromethyl-N--[3-(1H--imidazol-1-yl)propyl]benzamide] | 84
14 | CC(=O)Nc1ccc(C(=O)NCCCn2ccnc2)cc1 [4-(acetylamino)-N--[3-(1H--imidazol-1-yl)propyl]benzamide] | 98.7
15 | O=C(NCCCn1cnc(-c2ccccc2)c1)c1ccc(Br)cc1 [4-Bromo-N-[3-(4-phenyl-1H-imidazol-1-yl)propyl]benzamide] | 66
16 | CC(=O)c1ccc(C(=O)NCCCn2ccnc2)cc1 [4-acetyl-N--[3-(1H--imidazol-1-yl)propyl]benzamide] | 89.5
17 | O=C(NCCCn1ccnc1)c1ccc(C(=O)c2ccccc2)cc1 [4-benzoyl-N--[3-(1H--imidazol-1-yl)propyl]benzamide] | 103
18 | O=C(NC(CCn1ccnc1)c1ccccc1)c1ccc(Br)cc1 (centres unmarked) [4-bromo-N--[3-(1H--imidazol-1-yl)-1-phenylpropyl]benzamide] | 100
19 | CC(CCNC(=O)c1ccc(Br)cc1)n1ccnc1 (centres unmarked) [4-bromo-N--[3-(1H--imidazol-1-yl)butyl]benzamide] | 91
20 | O=C(NC(CCn1ccnc1)c1ccccc1)c1ccc(Cl)cc1 (centres unmarked) [4-chloro-N--[3-(1H--imidazol-1-yl)-1-phenylpropyl]benzamide] | 100
21 | CC(CNC(=O)c1ccc(Cl)cc1)Cn1ccnc1 (centres unmarked) [4-chloro-N--[3-(1H--imidazol-1-yl)-2-methylpropyl]benzamide fumarate] | 100

Row | SMILES | inhibition at 100 µM [%]
22 | CC(CCNC(=O)c1ccc(Cl)cc1)n1ccnc1 (centres unmarked) [4-chloro-N--[3-(1H--imidazol-1-yl)butyl]benzamide] | 96
23 | N#Cc1ccc(C(=O)NCCCn2ccnc2)cc1 [4-cyano-N--[3-(1H--imidazol-1-yl)propyl]benzamide] | 90.7
24 | O=C(NCCCn1ccnc1)c1ccc(F)cc1 [4-fluoro-N--[3-(1H--imidazol-1-yl)propyl]benzamide] | 87.1
25 | O=C(Cc1ccc(F)cc1)NCCCn1ccnc1 [4-fluoro-N--[3-(1H--imidazol-1-yl)propyl]benzeneacetamide, fumarate] | 53.1
26 | Cc1cn(CCCNC(=O)c2ccc(I)cc2)cn1 [4-iodo-N--[3-(4-methyl-1H--imidazol-1-yl)propyl]benzamide] | 99
27 | Cc1ccc(CC(=O)NCCCn2cnc(C)c2)cc1 [4-methyl-N--[3-(4-methyl-1H--imidazol-1-yl)propyl]phenylacetamide] | 76
28 | CNc1ccccc1C(=O)NCCCn1ccnc1 [N--[3-(1H--imidazol-1-yl)propyl]-2-methylaminobenzamide] | 57
29 | COc1cc(C(=O)NCCCn2ccnc2)cc(OC)c1OC [N--[3-(1H--imidazol-1-yl)propyl]-3,4,5-trimethoxybenzamide] | 101
30 | CN(C)c1ccc(C(=O)NCCCn2ccnc2)cc1 [N--[3-(1H--imidazol-1-yl)propyl]-4-(dimethylamino)benzamide] | 93
31 | CS(=O)(=O)c1ccc(C(=O)NCCCn2ccnc2)cc1 [N--[3-(1H--imidazol-1-yl)propyl]-4-(methylsulfonyl)benzamide] | 80.1
32 | CSc1ccc(C(=O)NCCCn2ccnc2)cc1 [N--[3-(1H--imidazol-1-yl)propyl]-4-(methylthio)-benzamide] | 102
33 | O=C(NCCCn1ccnc1)c1ccc(I)cc1 [N--[3-(1H--imidazol-1-yl)propyl]-4-iodobenzamide] | 96.7
34 | COc1ccc(C(=O)NCCCn2ccnc2)cc1 [N--[3-(1H--imidazol-1-yl)propyl]-4-methoxybenzamide] | 88.9
35 | Cc1ccc(C(=O)NCCCn2ccnc2)cc1 [N--[3-(1H--imidazol-1-yl)propyl]-4-methylbenzamide] | 83.2
36 | O=C(NCCCn1ccnc1)C1c2ccccc2-c2ccccc21 [N--[3-(1H--imidazol-1-yl)propyl]-9H--fluorene-9-carboxamide] | 100
37 | O=C(NCCCn1ccnc1)c1ccc(-c2ccccc2)cc1 [N--[3-(1H--imidazol-1-yl)propyl][1,1'-biphenyl]-4-carboxamide] | 106
38 | O=C(NCCCCn1ccnc1)c1cccc2ccccc12 [N--[4-(1H--imidazol-1-yl)butyl]-naphthalene-1-carboxamide] | 95
39 | O=C(COc1ccccc1)NCCCn1ccnc1 [N-[3-(1H-Imidazol-1-yl)propyl]-2-phenoxyacetamide] | 86.2
40 | O=C(NCCCn1ccnc1)C(=O)c1ccccc1 [N-[3-(1H-Imidazol-1-yl)propyl]-α-oxo-benzeneacetamide, fumarate] | 79.7
41 | O=C(NCCCn1ccnc1)C(c1ccccc1)c1ccccc1 [N-[3-(1H-imidazol-1-yl)propyl]diphenylacetamide] | 84
